Experimental data: US10869931B2, “Polyethylene glycol-modified angiogenesis inhibitor HM-1 and application thereof” (NANJING ANJI BIOLOGICAL TECHNOLOGY CO.,LTD, priority 2016, dated 2020)
Marks after values point to notes of the source that are not given here. Where no end group is shown, it is not given here.

Assays:
[1] = tested on: choroidal neovascularization in BN rats; test: Laser-induced choroidal neovascularization in BN rats (FFA); format: in vivo, rat
Procedure: 6-8 weeks old male BN rats were anesthetized with 846 compound anesthetic 0.5 mL/kg administered intraperitoneally. The eye drops of compound tropamide eyes were used 5 minutes before laser photocoagulation, and the pupils of both eyes were fully scattered. Fix animals, with the aid of −53.00 D contact lens, around the optic disc and along the same distance from the optic disc 2PD, the laser beam photocoagulation were performed to make a total of 8 photo-condensation spots, with laser wavelength of 647.1 nm, power of 350 mW, photocoagulation spot diameter and time were 50 μm and 0.05 s, respectively. Immediately after photocoagulation, fundus photography was performed. FFA, histopathology and transmission electron microscopy were performed at 3, 7, 14, 21, and 28 days after photocoagulation.
It was confirmed by fundus photography and FFA examination that the fluorescein leakage of photocoagulation peaked on the 21st day after photocoagulation, and histopathological examination was performed at the same time. […] A large number of neovascular vessels were seen, and red blood cells were visible in the lumen. Microscopically, capillary cells in the choroidal melanocytes were cohesively altered and endothelial cells aggregated.
Rats that were successfully modeled were randomly divided into groups of 5 rats each. They were labeled as negative control group, mPEG-SC-HM-1 treatment group, mPEG2-NHS-HM-1 treatment group, mPEG-ALD-HM-1 treatment group and mPEG-bALD-HM-1 treatment group, respectively. Saline, mPEG-HM-1 (see Table 53 for dosing) was administered intravitreally, once daily for 1 week. FFA examinations were performed 3 days, 7 days, 14 days, and 28 days after administration of the modified peptides.

Hemangioma tumor cells = test: MTT proliferation inhibition, hemangioma cells; format: cell-based, human; design: concentration or dose not given beside the values; settings: 48 h
Outline: (§1)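 Tumour cells plated at 2×10^4 cells/mL, attached overnight, then exposed to dilutions of mPEG-HM-1 for 48 h at 37 °C, 5% CO2. MTT added 4 h, formazan dissolved in DMSO, absorbance 570/630 nm; growth inhibition = 1 − treated/untreated, three independent repeats, mean±SD.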

[2] = tested on: Colorectal cancer tumor cells; test: MTT proliferation inhibition, colorectal cancer cells; format: cell-based, human; design: concentration or dose not given beside the values; settings: 48 h
Outline: as §1

[3] = tested on: Ovarian cancer tumor cells; test: MTT proliferation inhibition, ovarian cancer cells; format: cell-based, human; design: concentration or dose not given beside the values; settings: 48 h
Outline: as §1

mouse spleen lymphocytes = test: ConA-stimulated mouse spleen lymphocyte proliferation (MTT); format: cell-based; settings: ConA 5 μg/mL, 48 h
Outline: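 Spleen cells, red cells lysed with Tris-NH4Cl, plated at 5×10^6/mL in RPMI 1640 with 10% calf serum alongside blank, ConA and Dex (0.02 mg/mL) groups. After 48 h at 37° C., MTT added for 4 h, formazan dissolved in DMSO, OD read at 570 nm, 5 replicates.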

[4] = tested on: corneal neovascularization in BALB/c mice; test: Alkali-burn corneal neovascularization in BALB/c mice (CD31 microvessel density); format: in vivo, mouse; settings: for Inhibition rate: corneal microvessel density vs control; for Inhibition rate / MVD: day 14 after alkali burn, intravitreal once a day for 1 week; for MVD: microvessel density (CD31) of cornea
Source text: (1) Preparation of corneal neovascularization model induced by alkali burn in BALB/c mice: mice were randomly grouped and labeled as mPEG-HM-1 experimental group and control group, 5 […] in each group, respectively, was given mPEG-HM-1 and saline by Intravitreal injection after alkali burn, once a day for 1 week. The inflammatory reaction and neovascularization of the cornea were observed under slit lamp microscope at 1 d, 7 d, and 14 d after alkali burn. On the 14th day after alkali burn, the corneal neovascularization was recorded under the slit lamp microscope in the anterior segment of the eye. All the mice were euthanized by cervical dislocation and the eyeballs were removed, washed with saline to rid of blood, and was fixed in 4% paraformaldehyde for 1.5 h, dehydrated in PBS containing 30% sucrose overnight, embedded in OCT frozen section embedding agent, stored in −80° C. refrigerator, frozen section 8 μm, and underwent immunocytochemical detection of CD31 expression. (2) Quantitative measurement of corneal tissue microvessel density: Microvessel density (MVD) is an indicator for evaluating angiogenesis. Vascular endothelial cells were labeled with anti-CD31 antibody by immunohistochemistry, and the number of microvessels per unit area was counted to measure the degree of neovascularization. Standards for counting microvessels: Microscopically, the endothelial cells or cell clusters that are clearly demarcated from adjacent tissues in the corneal tissue and stained brown or brown are counted in the neovascularization. The number of new blood vessels in the whole section was counted under a 10×20 microscope. After the corneal tissue was photographed, the entire corneal tissue area was calculated by image processing software Image J, and the neovascular density of the whole section was determined. The test was repeated 3 times independently. The results obtained by the test were expressed as mean±SD, and a statistical T test was performed. *P<0.05 was a significant difference, and **P<0.01 was a very significant difference.

Substance	rate of growth inhibition (Hemangioma tumor cells)	rate of growth inhibition [2]	rate of growth inhibition [3]	A570 nm/A630 nm (mouse spleen lymphocytes; 20 μg/mL)	Inhibition Rate of spleen lymphocyte proliferation (mouse spleen lymphocytes; 20 μg/mL)	A570 nm/A630 nm (mouse spleen lymphocytes; 40 μg/mL)	Inhibition Rate of spleen lymphocyte proliferation (mouse spleen lymphocytes; 40 μg/mL)	A570 nm/A630 nm (mouse spleen lymphocytes; 80 μg/mL)	Inhibition Rate of spleen lymphocyte proliferation (mouse spleen lymphocytes; 80 μg/mL)	Inhibition rate [4]	MVD [4]	A570 nm/A630 nm (mouse spleen lymphocytes; 10 μg/mL)	Inhibition Rate of spleen lymphocyte proliferation (mouse spleen lymphocytes; 10 μg/mL)	further results
mPEG-ALD20k-Arg-Gly-Ala-Asp-Arg-Ala-Gly-Gly-Gly-Gly-Arg-Gly-Asp ({mPEG‑ALD 20 kDa}-RGADRAGGGGRGD) [mPEG-ALD20k-HM-1]	53.30 ± 16.06%	72.43 ± 19.32%	80.68 ± 21.69%	0.6035 ± 0.0989	12.14%	0.4876 ± 0.1259	29.02%	0.4406 ± 0.1074	35.85%	48.04%	34.67 ± 6.953**			CNV Incidence rate ([1]; Day 3 after administration, 100 μg intravitreally once daily for 1 week (Table 53)): 51.72%; leakage Spots # ([1]; Day 3 after administration, 100 μg intravitreally once daily for 1 week (Table 53), total spots 290-296 by table): 150; CNV Incidence rate ([1]; Day 7, 100 μg intravitreally once daily for 1 week (Table 53)): 48.90%; leakage Spots # ([1]; Day 7, 100 μg intravitreally once daily for 1 week (Table 53), total spots 182-188 by table): 89; CNV Incidence rate ([1]; Day 14, 100 μg intravitreally once daily for 1 week (Table 53)): 45.45%; leakage Spots # ([1]; Day 14, 100 μg intravitreally once daily for 1 week (Table 53), total spots 132-138 by table): 60; CNV Incidence rate ([1]; Day 28, 100 μg intravitreally once daily for 1 week (Table 53)): 40.85%; leakage Spots # ([1]; Day 28, 100 μg intravitreally once daily for 1 week (Table 53), total spots 67-71 by table): 29
mPEG-ALD40k-Arg-Gly-Ala-Asp-Arg-Ala-Gly-Gly-Gly-Gly-Arg-Gly-Asp ({mPEG‑ALD 40 kDa}-RGADRAGGGGRGD) [mPEG-ALD40k-HM-1]	50.67 ± 14.02%	70.92 ± 16.52%	74.61 ± 20.09%			0.6176 ± 0.0998	10.09%	0.5040 ± 0.1239	26.63%	46.11%	35.96 ± 6.862**			CNV Incidence rate ([1]; Day 3 after administration, 200 μg intravitreally once daily for 1 week (Table 53)): 52.41%; leakage Spots # ([1]; Day 3 after administration, 200 μg intravitreally once daily for 1 week (Table 53), total spots 290-296 by table): 152; CNV Incidence rate ([1]; Day 7, 200 μg intravitreally once daily for 1 week (Table 53)): 50.55%; leakage Spots # ([1]; Day 7, 200 μg intravitreally once daily for 1 week (Table 53), total spots 182-188 by table): 92; CNV Incidence rate ([1]; Day 14, 200 μg intravitreally once daily for 1 week (Table 53)): 46.97%; leakage Spots # ([1]; Day 14, 200 μg intravitreally once daily for 1 week (Table 53), total spots 132-138 by table): 62; CNV Incidence rate ([1]; Day 28, 200 μg intravitreally once daily for 1 week (Table 53)): 42.25%; leakage Spots # ([1]; Day 28, 200 μg intravitreally once daily for 1 week (Table 53), total spots 67-71 by table): 30; A570 nm/A630 nm (mouse spleen lymphocytes; 160 μg/mL): 0.4770 ± 0.1057; Inhibition Rate of spleen lymphocyte proliferation (mouse spleen lymphocytes; 160 μg/mL): 30.56%
mPEG-SC5k-Arg-Gly-Ala-Asp-Arg-Ala-Gly-Gly-Gly-Gly-Arg-Gly-Asp ({mPEG‑SC 5 kDa}-RGADRAGGGGRGD) [mPEG-SC5k-HM-1]	43.68 ± 12.53%	55.35 ± 12.82%	60.81 ± 20.27%	0.4954 ± 0.1219	28.16%					40.52%	39.69 ± 3.527*	0.5480 ± 0.1081	20.54%	CNV Incidence rate ([1]; Day 3 after administration, 25 μg intravitreally once daily for 1 week (Table 53)): 54.73%; leakage Spots # ([1]; Day 3 after administration, 25 μg intravitreally once daily for 1 week (Table 53), total spots 290-296 by table): 162; CNV Incidence rate ([1]; Day 7, 25 μg intravitreally once daily for 1 week (Table 53)): 53.19%; leakage Spots # ([1]; Day 7, 25 μg intravitreally once daily for 1 week (Table 53), total spots 182-188 by table): 100; CNV Incidence rate ([1]; Day 14, 25 μg intravitreally once daily for 1 week (Table 53)): 48.15%; leakage Spots # ([1]; Day 14, 25 μg intravitreally once daily for 1 week (Table 53), total spots 132-138 by table): 65; CNV Incidence rate ([1]; Day 28, 25 μg intravitreally once daily for 1 week (Table 53)): 47.76%; leakage Spots # ([1]; Day 28, 25 μg intravitreally once daily for 1 week (Table 53), total spots 67-71 by table): 32; A570 nm/A630 nm (mouse spleen lymphocytes; 5 μg/mL): 0.6253 ± 0.0947; Inhibition Rate of spleen lymphocyte proliferation (mouse spleen lymphocytes; 5 μg/mL): 9.32%
mPEG-SC10k-Arg-Gly-Ala-Asp-Arg-Ala-Gly-Gly-Gly-Gly-Arg-Gly-Asp ({mPEG‑SC 10 kDa}-RGADRAGGGGRGD) [mPEG-SC10k-HM-1]	52.88 ± 13.66%	61.35 ± 16.88%	65.89 ± 23.37%	0.5488 ± 0.1052	20.42%	0.4788 ± 0.1282	30.57%			52.17%	31.92 ± 3.648**	0.6234 ± 0.0976	9.60%	incidence of CNV ([1]; BN rats, 28 days after administration, intravitreal once daily for 1 week): 38.81%; CNV Incidence rate ([1]; Day 3 after administration, 50 μg intravitreally once daily for 1 week (Table 53)): 49.66%; leakage Spots # ([1]; Day 3 after administration, 50 μg intravitreally once daily for 1 week (Table 53), total spots 290-296 by table): 147; CNV Incidence rate ([1]; Day 7, 50 μg intravitreally once daily for 1 week (Table 53)): 45.74%; leakage Spots # ([1]; Day 7, 50 μg intravitreally once daily for 1 week (Table 53), total spots 182-188 by table): 86; CNV Incidence rate ([1]; Day 14, 50 μg intravitreally once daily for 1 week (Table 53)): 42.96%; leakage Spots # ([1]; Day 14, 50 μg intravitreally once daily for 1 week (Table 53), total spots 132-138 by table): 58; CNV Incidence rate ([1]; Day 28, 50 μg intravitreally once daily for 1 week (Table 53)): 38.81%; leakage Spots # ([1]; Day 28, 50 μg intravitreally once daily for 1 week (Table 53), total spots 67-71 by table): 26; inhibition rate of corneal neovascularization ([4]; BALB/c mice, alkali burn, intravitreal injection once a day for 1 week): 52.17%
